Measured values from US7572806B2, “PPAR active compounds” (Plexxikon, Inc., priority 2003, dated 2009).
Where two headings read alike, the source gives them in different places.

Columns and labels:
PPARδ [1] = molecular target: T1, PPARδ (Homo sapiens, UniProt Q03181); settings: cited from earlier work
T1 sequence (Q03181 1-441): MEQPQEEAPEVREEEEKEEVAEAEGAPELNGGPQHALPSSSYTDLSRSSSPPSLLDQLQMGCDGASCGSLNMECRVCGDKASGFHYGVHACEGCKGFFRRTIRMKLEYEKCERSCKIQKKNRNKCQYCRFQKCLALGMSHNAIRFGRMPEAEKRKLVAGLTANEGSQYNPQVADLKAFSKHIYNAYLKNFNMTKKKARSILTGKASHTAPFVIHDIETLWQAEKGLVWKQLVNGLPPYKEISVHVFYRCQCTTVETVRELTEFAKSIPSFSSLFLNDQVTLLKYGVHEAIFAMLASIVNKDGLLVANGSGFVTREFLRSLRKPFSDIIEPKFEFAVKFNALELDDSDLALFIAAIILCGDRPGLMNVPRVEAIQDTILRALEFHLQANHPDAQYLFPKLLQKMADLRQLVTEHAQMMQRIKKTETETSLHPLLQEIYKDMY

murine PPARα = molecular target: T2, murine PPARα (Mus musculus, UniProt P23204); settings: cited from earlier work
T2 sequence (P23204 1-468): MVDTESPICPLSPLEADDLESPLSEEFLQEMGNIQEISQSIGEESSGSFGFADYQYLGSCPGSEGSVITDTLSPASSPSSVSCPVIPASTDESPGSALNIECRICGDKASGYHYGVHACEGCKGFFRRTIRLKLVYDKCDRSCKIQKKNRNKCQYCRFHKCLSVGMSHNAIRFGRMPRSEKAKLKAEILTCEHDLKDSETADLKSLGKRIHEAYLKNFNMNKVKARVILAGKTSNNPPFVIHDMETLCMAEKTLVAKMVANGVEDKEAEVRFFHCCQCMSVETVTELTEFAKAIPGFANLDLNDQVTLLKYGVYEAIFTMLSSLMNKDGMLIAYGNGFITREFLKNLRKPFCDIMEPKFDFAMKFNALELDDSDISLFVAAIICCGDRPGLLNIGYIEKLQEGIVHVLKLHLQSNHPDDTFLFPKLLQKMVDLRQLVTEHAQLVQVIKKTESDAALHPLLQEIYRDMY

PPARα = molecular target: T3, PPARα (Homo sapiens, UniProt Q07869); assay: Alpha screen assay, agonist mode, ligand dependent interaction of PPAR with coactivator peptide; format: biochemical
T3 sequence (Q07869 1-468): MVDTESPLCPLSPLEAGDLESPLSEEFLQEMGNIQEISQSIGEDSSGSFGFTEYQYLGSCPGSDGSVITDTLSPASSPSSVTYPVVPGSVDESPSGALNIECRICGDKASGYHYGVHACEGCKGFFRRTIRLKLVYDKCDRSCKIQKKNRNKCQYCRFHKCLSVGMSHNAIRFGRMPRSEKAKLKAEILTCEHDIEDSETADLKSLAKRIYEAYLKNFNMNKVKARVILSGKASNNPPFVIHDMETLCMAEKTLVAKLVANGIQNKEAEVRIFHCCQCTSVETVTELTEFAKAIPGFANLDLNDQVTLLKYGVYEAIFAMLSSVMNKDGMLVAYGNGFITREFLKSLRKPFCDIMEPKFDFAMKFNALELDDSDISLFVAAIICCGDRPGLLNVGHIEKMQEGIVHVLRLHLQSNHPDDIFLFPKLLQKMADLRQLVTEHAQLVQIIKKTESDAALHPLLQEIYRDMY
Method: (§1) The homogenous Alpha screen assay was used in the agonist mode to determine the ligand dependent interaction of the PPARs (α,δ,γ) with the coactivator peptides (SRC or DRIP205). Briefly 15 ul of the reaction mix (50 mM Tris pH 7.5, 50 mM Kcl, 0.05% Tween 20, 1 mM DTT, 0.1% BSA and 10 nM-200 nMPPAR and […] coactivator peptide) was added to the test compound (1 ul compound in DMSO) and preincubated for 1-6 hr. Next, 5 ul of the Alpha screen beads were added. The reactions were incubated for 2 hrs before taking the reading in the Fusion alpha instrument. In the antagonist mode compounds were assayed for inhibition of the co-activator binding signal caused by the control agonists for each receptor.
(§2) The controls agonists used were WY-14643(PPAR(α), farglitazar (PPAR(γ) and bezafibrate (PPAR(δ).
(§3) Using the assay above, compounds from Table 1 were analyzed for activity. The data reported in Table 2 was generated via the alpha screen assay and expressed in μMol/L. The data points from the Fusion alpha instrument were transferred to Assay Explorer® (MDL) to generate a curve and calculate the inflection point of the curve as EC50.

PPARγ = molecular target: T4, PPARγ (Homo sapiens, UniProt P37231); assay: as above; format: biochemical; settings: for EC50: Alpha screen
T4 sequence (P37231 1-505): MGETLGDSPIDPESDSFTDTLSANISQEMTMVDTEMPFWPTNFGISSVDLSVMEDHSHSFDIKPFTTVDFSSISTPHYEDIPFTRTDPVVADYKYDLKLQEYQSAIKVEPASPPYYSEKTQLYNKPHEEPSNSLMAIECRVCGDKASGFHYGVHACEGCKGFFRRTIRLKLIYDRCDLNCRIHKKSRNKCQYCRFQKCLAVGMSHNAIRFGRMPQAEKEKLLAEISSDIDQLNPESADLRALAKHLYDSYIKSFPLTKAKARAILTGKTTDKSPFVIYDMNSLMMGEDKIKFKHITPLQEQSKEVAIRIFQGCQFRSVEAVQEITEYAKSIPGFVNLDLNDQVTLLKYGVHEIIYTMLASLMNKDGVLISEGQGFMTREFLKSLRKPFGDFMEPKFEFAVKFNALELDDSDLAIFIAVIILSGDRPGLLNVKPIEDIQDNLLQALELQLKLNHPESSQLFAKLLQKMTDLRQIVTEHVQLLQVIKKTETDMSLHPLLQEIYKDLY
Method: as §1, §2, §3

PPARδ [2] = molecular target: T1, PPARδ; assay: as above; format: biochemical
Method: as §1, §2, §3

PPARs (α,δ,γ) = assay: Alpha screen assay, pan-activity across the PPARs; format: biochemical, human; settings: PPARα, PPARδ and PPARγ
Method: as §1, §2, §3

[3] = large prospective trial; cited from earlier work
[4] = agonist mode, read-out: PPARα agonist
[5] = agonist mode, read-out: PPARγ Agonist
[6] = agonist mode, read-out: PPARδ Agonist

Structure (SMILES) | EC50 (PPARα; [4]) [µM] | EC50 (PPARγ; [5]) [µM] | EC50 (PPARδ [2]; [6]) [µM] | also measured
CCCc1c(OCCCOc2ccc(OCC(=O)O)cc2)ccc(C(C)=O)c1O [L-165041] | – | – | – | agonist selectivity for PPARδ over PPARγ (PPARδ [1]): approximately 30 fold; activity on murine PPARα (murine PPARα): inactive
CCc1ccc2c(c1)c(CCC(=O)O)cn2S(=O)(=O)c1ccccc1 [compound 6, 3-(1-Benzenesulfonyl-5-ethyl-1H-indol-3-yl)-propionic acid] | > 10 | ≤ 10 | > 10 | EC50 (PPARα; read-out: activity on PPARα): ≥ 200 µM; EC50 (PPARγ; read-out: activity on PPARγ): ~8 µM; selectivity (PPARγ; PPARγ versus PPARα and δ): selective for PPARγ; EC50 (PPARδ [2]; read-out: activity on PPARδ): ≥ 200 µM
O=C(O)CCc1nn(S(=O)(=O)c2ccccc2)c2ccccc12 [compound 39, 3-(1-Benzenesulfonyl-1H-indazol-3-yl)-propionic acid] | > 10 | > 10 | > 10 | –
CCCCOc1ccc(S(=O)(=O)n2cc(CCC(=O)O)c3cc(OC)ccc32)cc1 [compound 43, 3-[1-(4-Butoxy-benzenesulfonyl)-5-methoxy-1H-indol-3-yl]-propionic acid] | ≤ 10 | ≤ 10 | ≤ 10 | pan-activity (PPARs (α,δ,γ)): low micromolar or even sub-micromolar
COc1ccc2c(c1)c(CCC(=O)O)cn2C(=S)Nc1ccccc1 [compound 75, 3-(5-Methoxy-1-phenylthiocarbamoyl-1H-indol-3-yl)-propionic acid] | > 10 | > 10 | > 10 | –
CCOc1ccc2c(c1)c(CCC(=O)O)cn2S(=O)(=O)c1ccccc1 [compound 82, 3-(1-Benzenesulfonyl-5-ethoxy-1H-indol-3-yl)-propionic acid] | ≤ 10 | ≤ 10 | ≤ 10 | –
COc1ccc2c(c1)c(CCC(=O)O)cn2C(=O)Nc1ccccc1 [compound 85, 3-(5-Methoxy-1-phenylcarbamoyl-1H-indol-3-yl)-propionic acid] | > 10 | > 10 | > 10 | –
O=C(O)CCc1cn(S(=O)(=O)c2ccccc2)c2ccc(-c3ccsc3)cc12 [compound 92, 3-(Benzenesulfonyl-5-thiophen-3-yl-1H-indol-3-yl)-propionic acid] | ≤ 10 | ≤ 10 | > 10 | –
O=C(O)CCc1cn(S(=O)(=O)c2ccccc2)c2ccccc12 [compound 97, 3-(1-Benzenesulfonyl-1H-indol-3-yl)-propionic acid] | > 10 | > 10 | > 10 | –
Cc1ccc(C)c(OCCCC(C)(C)C(=O)O)c1 [gemfibrozil] | – | – | – | reduction in cardiovascular events or death [3]: 22%

The next lines start with results.

EC50 (PPARα; [4]) [µM] | EC50 (PPARγ; [5]) [µM] | EC50 (PPARδ [2]; [6]) [µM] | Structure (SMILES) | also measured
≤ 10 | ≤ 10 | ≤ 10 | COc1ccc2c(c1)c(CCC(=O)O)cn2S(=O)(=O)c1ccccc1 [compound 29, 3-(1-Benzenesulfonyl-5-methoxy-1H-indol-3-yl)-propionic acid] | pan-activity (PPARs (α,δ,γ)): low micromolar or even sub-micromolar
≤ 10 | ≤ 10 | ≤ 10 | COc1ccc2c(c1)c(CCC(=O)O)cn2S(=O)(=O)c1ccc(Cl)cc1 [compound 49, 3-[1-(4-Chloro-benzenesulfonyl)-5-methoxy-1H-indol-3-yl]-propionic acid] | –
≤ 10 | ≤ 10 | ≤ 10 | COc1ccc2c(c1)c(CCC(=O)O)cn2S(=O)(=O)c1ccc(Cl)c(Cl)c1 [compound 53, 3-[1-(3,4-Dichloro-benzenesulfonyl)-5-methoxy-1H-indol-3-yl]-propionic acid] | pan-activity (PPARs (α,δ,γ)): low micromolar or even sub-micromolar
≤ 10 | > 10 | > 10 | COc1ccc2c(c1)c(CCC(=O)O)cn2Cc1ccccc1 [compound 71, 3-(1-Benzyl-5-methoxy-1H-indol-3-yl)-propionic acid] | –
≤ 10 | ≤ 10 | ≤ 10 | CCCCc1ccc(S(=O)(=O)n2cc(CCC(=O)O)c3cc(OC)ccc32)cc1 [compound 77, 3-[1-(4-Butyl-benzenesulfonyl)-5-methoxy-1H-indol-3-yl]-propionic acid] | –
≤ 10 | ≤ 10 | ≤ 10 | COc1ccc2c(c1)c(CCC(=O)O)cn2S(=O)(=O)c1cccc(OC(F)(F)F)c1 [compound 79, 3-[5-Methoxy-1-(3-trifluoromethoxy-benzenesulfonyl)-1H-indol-3-yl]-propionic acid] | –
≤ 10 | > 10 | > 10 | COc1ccc2c(c1)c(CCC(=O)O)cn2C(=O)c1ccccc1 [compound 81, 3-(1-Benzoyl-5-methoxy-1H-indol-3-yl)-propionic acid] | –
